Results on eleven compounds are retold here after patent US20260217767A1, “NOVEL A4B7 THIOETHER PEPTIDE DIMER ANTAGONISTS” (Protagonist Therapeutics, Inc., priority 2014, published 2026).

Data set [1] concerns the target T1, rh integrin α4β7 (Homo sapiens, UniProt P13612+P26010).
T1 construct: purchased R&D Systems 5397-A30
T1 sequence (P13612 34-977 limits assumed): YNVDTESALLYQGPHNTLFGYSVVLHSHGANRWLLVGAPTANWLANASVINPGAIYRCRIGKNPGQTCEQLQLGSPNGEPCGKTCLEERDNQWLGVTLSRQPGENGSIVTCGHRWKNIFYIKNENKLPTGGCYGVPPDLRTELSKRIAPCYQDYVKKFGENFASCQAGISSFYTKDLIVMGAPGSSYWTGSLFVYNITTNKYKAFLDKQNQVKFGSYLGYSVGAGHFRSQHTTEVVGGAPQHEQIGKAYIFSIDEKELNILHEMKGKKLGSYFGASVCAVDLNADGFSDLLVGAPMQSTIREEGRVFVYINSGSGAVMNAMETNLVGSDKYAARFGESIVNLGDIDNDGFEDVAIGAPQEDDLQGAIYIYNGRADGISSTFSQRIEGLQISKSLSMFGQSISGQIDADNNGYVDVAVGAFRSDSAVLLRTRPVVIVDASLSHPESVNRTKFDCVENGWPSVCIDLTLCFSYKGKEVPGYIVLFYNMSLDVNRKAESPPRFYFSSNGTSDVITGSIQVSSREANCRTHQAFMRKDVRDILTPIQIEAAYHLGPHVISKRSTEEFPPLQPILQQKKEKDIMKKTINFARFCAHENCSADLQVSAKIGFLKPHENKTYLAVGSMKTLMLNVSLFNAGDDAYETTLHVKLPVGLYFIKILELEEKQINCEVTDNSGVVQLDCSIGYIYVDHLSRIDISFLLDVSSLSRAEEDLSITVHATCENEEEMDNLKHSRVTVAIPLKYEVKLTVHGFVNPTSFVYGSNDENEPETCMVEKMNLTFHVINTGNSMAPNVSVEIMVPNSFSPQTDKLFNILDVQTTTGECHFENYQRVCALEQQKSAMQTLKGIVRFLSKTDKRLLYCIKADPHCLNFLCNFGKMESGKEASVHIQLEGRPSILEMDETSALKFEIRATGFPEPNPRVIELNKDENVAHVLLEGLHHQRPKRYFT
T1 sequence (P26010 20-723 limits assumed): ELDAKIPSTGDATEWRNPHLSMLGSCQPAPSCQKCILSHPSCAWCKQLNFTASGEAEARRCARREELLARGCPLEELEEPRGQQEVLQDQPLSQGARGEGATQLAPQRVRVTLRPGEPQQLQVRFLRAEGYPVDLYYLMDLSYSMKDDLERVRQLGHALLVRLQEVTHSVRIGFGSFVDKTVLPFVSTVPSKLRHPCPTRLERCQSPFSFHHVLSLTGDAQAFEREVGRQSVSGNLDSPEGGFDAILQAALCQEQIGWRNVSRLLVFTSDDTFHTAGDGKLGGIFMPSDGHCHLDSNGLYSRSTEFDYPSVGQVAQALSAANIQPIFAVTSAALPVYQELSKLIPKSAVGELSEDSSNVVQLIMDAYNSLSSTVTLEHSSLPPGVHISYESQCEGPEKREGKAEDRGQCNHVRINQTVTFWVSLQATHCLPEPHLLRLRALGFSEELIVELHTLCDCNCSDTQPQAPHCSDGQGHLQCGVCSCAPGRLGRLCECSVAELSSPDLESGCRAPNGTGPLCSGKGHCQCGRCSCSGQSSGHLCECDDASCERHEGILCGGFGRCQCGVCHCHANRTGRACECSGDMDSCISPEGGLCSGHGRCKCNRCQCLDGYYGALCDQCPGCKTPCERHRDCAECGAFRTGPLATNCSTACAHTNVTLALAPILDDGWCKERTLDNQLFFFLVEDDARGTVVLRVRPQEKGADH
The experiment in a line: α4β7-MAdCAM Competition ELISA. The class given is binding. Conditions: thioether monomer peptides, Table 6; read-out: ELISA A4B7. As to the method: α4β7-MAdCAM Competition ELISA A nickel coated plate (Pierce #15442) was coated with rh integrin α4β[…] Systems #5397-A30) at 800 ng/well and incubated at room temperature with shaking for 1 hr. The solution was then removed by shaking and blocked with assay buffer (50 mM Tris-HCl pH7.6, 150 mM NaCl, 1 mM MnCl2 or MgCl2, 0.05% Tween-20 and 0.5% BSA) at 250 ul/well. The plate was then incubated at room temperature for 1 hr. Each well was washed 3 times with wash buffer (50 mM Tris-HCl pH7.6, 100 mM NaCl, 1 mM MnCl2 or MgCl2, 0.05% Tween-20). To each well was added 25 ul of a serial dilution (3-fold dilutions in assay buffer) of peptides starting at 20 μM. 25 ul of recombinant human MAdCAM-1 (R&D Systems #6056-MC) was then added to each well at a fixed concentration 20 nM. The final starting peptide concentration was 10 μM, and the final MAdCAM-1 concentration was 10 nM. The plates were then incubated at room temperature for 1 hr to reach binding equilibrium. The wells were then washed three times with wash buffer. 50 ul of mouse anti-human IgG1-HRP (Invitrogen #A10648) diluted in 1:2000 in assay buffer was then added to each well. The wells were incubated at room temperature for 45 min with shaking. The wells were then washed 3 times with wash buffer. 100 ul of TMB were then added to each well and closely observe during development time. The reaction was stopped with 2N H2SO4 and absorbance was read at 450 nm.

The nature of data set [2]: Simulated Intestinal Fluid (SIF) Stability Assay. The class given is in vitro ADME. Conditions: pig, 37° C., monomers, Table 6; for half-life at 22 μM: simulated intestinal fluid (SIF) with 1% porcine pancreatin, pH 6.5, porcine pancreatin; for half-life: porcine pancreatin. An outline of the steps:
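Peptide at 22 μM final was incubated at 37° C in blank FaSSIF pH 6.5 with 1% porcine pancreatin. Timed samples were quenched in acetonitrile/methanol/formic acid with internal standard and analysed by LC-MS/MS. Half-lives came from first-order exponential fits of percent remaining.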

Where a SMILES comes first, the peptide text is derived from it.

Regarding `CC(C)C[C@@H]1NC(=O)[C@H]([C@@H](C)O)NC(=O)[C@H](CC(=O)O)NC(=O)[C@H](CO)NC(=O)[C@H](CCCNC(=N)N)N(C)C(=O)C(C)SC[C@@H](C(=O)N[C@@H](Cc2c[nH]c3ccccc23)C(=O)N[C@H](CCCCN)C(N)=O)NC1=O` (single isomer, unassigned) [compound 51], the IC50 in data set [1] fell in the range of 25 to 100 nM. In addition, the half-life at 22 μM in data set [2] was 0.1 h.
The corresponding values for `CC(C)C[C@@H]1NC(=O)[C@H]([C@@H](C)O)NC(=O)[C@H](CC(=O)O)NC(=O)[C@H](CO)NC(=O)[C@H](CCCNC(=N)N)N(C)C(=O)CSC(C)(C)[C@@H](C(=O)N[C@@H](Cc2c[nH]c3ccccc23)C(=O)N[C@H](CCCCN)C(N)=O)NC1=O` [compound 53] are 100 to 1000 nM and above 3 h.
With `CC(C)C[C@@H]1NC(=O)[C@H]([C@@H](C)O)NC(=O)[C@H](CC(=O)O)NC(=O)[C@H](CO)NC(=O)[C@H](CCCNC(=N)N)N(C)C(=O)CCSCC[C@@H](C(=O)N[C@@H](Cc2c[nH]c3ccccc23)C(=O)N[C@H](CCCCN)C(N)=O)NC1=O` [compound 57], the IC50 in data set [1] was 100 to 1000 nM. For the same compound, the half-life in data set [2] is below 0.333 h.
For `CC(C)C[C@@H]1NC(=O)[C@H]([C@@H](C)O)NC(=O)[C@H](CC(=O)O)NC(=O)[C@H](CO)NC(=O)[C@H](CCCNC(=N)N)NC(=O)c2ccccc2CSC[C@@H](C(=O)N[C@@H](Cc2c[nH]c3ccccc23)C(=O)N[C@H](CCCCN)C(N)=O)NC1=O` [compound 59], the IC50 in data set [1] was 100 to 1000 nM. The compound further returned a half-life at 22 μM in data set [2] below 0.333 h.
Take `CC(C)C[C@@H]1NC(=O)[C@H]([C@@H](C)O)NC(=O)[C@H](CC(=O)O)NC(=O)[C@H](CO)NC(=O)[C@H](CCCNC(=N)N)N(C)C(=O)c2ccccc2CSC(C)(C)[C@@H](C(=O)N[C@@H](Cc2c[nH]c3ccccc23)C(=O)N[C@@H](CCC(=O)O)CC(=O)N[C@H](CCCCN)C(N)=O)NC1=O` [compound 61] (HELM PEPTIDE1{[meR].S.D.T.L.[Pen].W.[O=C(O)CC[C@@H](CC(=O)[*:2])N[*:1]].[dK].[am]}|CHEM1{[O=C(c1ccccc1C[*:2])[*:1]]}$PEPTIDE1,CHEM1,1:R1-1:R1|PEPTIDE1,CHEM1,6:R3-1:R2$$$V2.0): the IC50 in data set [1] is below 25 nM. This compound gave a half-life at 22 μM in data set [2] above 3 h.
The corresponding values for `CC(C)C[C@@H]1NC(=O)[C@H]([C@@H](C)O)NC(=O)[C@H](CC(=O)O)NC(=O)[C@H](CO)NC(=O)[C@H](CCCNC(=N)N)N(C)C(=O)c2ccccc2CSC(C)(C)[C@@H](C(=O)N[C@@H](Cc2c[nH]c3ccccc23)C(=O)N[C@@H](CCC(=O)O)C(=O)N(C)[C@H](CCCCN)C(N)=O)NC1=O` [compound 62] (HELM PEPTIDE1{[meR].S.D.T.L.[Pen].W.E.[CN([C@H](CCCCN)C(=O)[*:2])[*:1]].[am]}|CHEM1{[O=C(c1ccccc1C[*:2])[*:1]]}$PEPTIDE1,CHEM1,1:R1-1:R1|PEPTIDE1,CHEM1,6:R3-1:R2$$$V2.0) are below 25 nM and above 3 h.
As to `CC(C)C[C@@H]1NC(=O)[C@H]([C@@H](C)O)NC(=O)[C@H](CC(=O)O)NC(=O)[C@H](CO)NC(=O)[C@H](CCCNC(=N)N)N(C)C(=O)c2ccccc2CSC[C@H](C(=O)N[C@@H](Cc2c[nH]c3ccccc23)C(=O)N[C@@H](CCC(=O)O)CC(=O)N[C@H](CCCCN)C(N)=O)NC1=O` [compound 66] (HELM PEPTIDE1{[meR].S.D.T.L.[dC].W.[O=C(O)CC[C@@H](CC(=O)[*:2])N[*:1]].[dK].[am]}|CHEM1{[O=C(c1ccccc1C[*:2])[*:1]]}$PEPTIDE1,CHEM1,1:R1-1:R1|PEPTIDE1,CHEM1,6:R3-1:R2$$$V2.0), in data set [1], the IC50 lay in the range of 25 to 100 nM. The compound also came in with a half-life in data set [2] above 3 h.
The corresponding values for `CC(C)C[C@@H]1NC(=O)[C@H]([C@@H](C)O)NC(=O)[C@H](CC(=O)O)NC(=O)[C@H](CO)NC(=O)[C@H](CCCNC(=N)N)N(C)C(=O)c2ccccc2CSCC[C@@H](C(=O)N[C@@H](Cc2c[nH]c3ccccc23)C(=O)N[C@@H](CCC(=O)O)C(=O)N[C@H](CCCCN)C(N)=O)NC1=O` [compound 67] (HELM PEPTIDE1{[meR].S.D.T.L.[O=C([C@H](CCS[*:3])N[*:1])[*:2]].W.E.[dK].[am]}|CHEM1{[O=C(c1ccccc1C[*:2])[*:1]]}$PEPTIDE1,CHEM1,1:R1-1:R1|PEPTIDE1,CHEM1,6:R3-1:R2$$$V2.0) are below 25 nM and below 0.333 h.
For `CC(C)C[C@@H]1NC(=O)[C@H]([C@@H](C)O)NC(=O)[C@H](CC(=O)O)NC(=O)[C@H](CO)NC(=O)[C@H](CCCNC(=N)N)N(C)C(=O)c2ccccc2CSC(C)(C)[C@@H](C(=O)N[C@@H](Cc2cccc3ccccc23)C(=O)N[C@H](CCC(=O)O)C(=O)N[C@H](CCCCN)C(N)=O)NC1=O` [compound 68] (HELM PEPTIDE1{[meR].S.D.T.L.[Pen].[O=C([C@H](Cc1cccc2ccccc12)N[*:1])[*:2]].[dE].[dK].[am]}|CHEM1{[O=C(c1ccccc1C[*:2])[*:1]]}$PEPTIDE1,CHEM1,1:R1-1:R1|PEPTIDE1,CHEM1,6:R3-1:R2$$$V2.0), the IC50 in data set [1] was below 25 nM. The half-life at 22 μM in data set [2] is above 3 h.
As to `CC(C)C[C@@H]1NC(=O)[C@H]([C@@H](C)O)NC(=O)[C@H](CC(=O)O)NC(=O)[C@H](CO)NC(=O)[C@H](CCCNC(=N)N)N(C)C(=O)c2ccccc2CSC(C)(C)[C@@H](C(=O)N[C@@H](Cc2c[nH]c3ccccc23)C(=O)N[C@H](CCC(=O)O)C(=O)N[C@H](Cc2c[nH]cn2)C(N)=O)NC1=O` [compound 109] (HELM PEPTIDE1{[meR].S.D.T.L.[Pen].W.[dE].[dH].[am]}|CHEM1{[O=C(c1ccccc1C[*:2])[*:1]]}$PEPTIDE1,CHEM1,1:R1-1:R1|PEPTIDE1,CHEM1,6:R3-1:R2$$$V2.0), the IC50 in data set [1] was below 25 nM.
Same read-out and setting: under `COC(=O)CC[C@H](NC(=O)[C@H](Cc1c[nH]c2ccccc12)NC(=O)[C@H]1NC(=O)[C@H](CC(C)C)NC(=O)[C@H]([C@@H](C)O)NC(=O)[C@H](CC(=O)O)NC(=O)[C@H](CO)NC(=O)[C@H](CCCNC(=N)N)N(C)C(=O)c2ccccc2CSC1(C)C)C(=O)N[C@H](CCCCN)C(N)=O` [compound 115] (HELM PEPTIDE1{[meR].S.D.T.L.[Pen].W.E.[dK].[am]}|CHEM1{[CO[*:1]]}|CHEM2{[O=C(c1ccccc1C[*:2])[*:1]]}$PEPTIDE1,CHEM1,8:R3-1:R1|PEPTIDE1,CHEM2,1:R1-1:R1|PEPTIDE1,CHEM2,6:R3-1:R2$$$V2.0) stands below 25 nM.
